Assay [1] deals with Pseudomonas aeruginosa. As to the kind of experiment: Antibiofilm activity against Pseudomonas aeruginosa ATCC 27853 assessed as reduction in biofilm biomass at 16 ug/ml relative to control. The assay is classed as functional. On the set-up: scale not given: the % may be the effect or the level left. The note with it: dose 16 µg/ml.
Assay [2] relates to Pseudomonas aeruginosa. As to the kind of experiment: Antibacterial activity against Pseudomonas aeruginosa PAO1 by broth microdilution method. It is filed as functional.
Assay [3] deals with Pseudomonas aeruginosa. The assay can be described thus: Antibiofilm activity against Pseudomonas aeruginosa PAO1 assessed as inhibition of biofilm formation at 16 ug/ml incubated for 24 hrs by crystal violet staining based assay relative to control. The assay is classed as functional. The arrangement: scale not given: the % may be the effect or the level left. Conditions: dose 16 µg/ml.

The test system of assay [4] is Pseudomonas aeruginosa. The assay can be described thus: Downregulation of pqsA mRNA expression in Pseudomonas aeruginosa PAO1. It is filed as functional.
For assay [5], the system named is Pseudomonas aeruginosa. As to the kind of experiment: Downregulation of pqsR mRNA expression in Pseudomonas aeruginosa PAO1. The assay is classed as functional.
Assay [6] deals with Pseudomonas aeruginosa. As to the kind of experiment: Antibacterial activity against Pseudomonas aeruginosa ATCC 27853 assessed as bacterial growth inhibition by agar diffusion assay. The assay is classed as functional.
Assay [7] has as its system Pseudomonas aeruginosa. As to the kind of experiment: Antibacterial activity against Pseudomonas aeruginosa ATCC 27853. It is filed as functional, organism-based.
Assay [8] relates to Pseudomonas aeruginosa. As to the kind of experiment: Antibacterial activity against Pseudomonas aeruginosa PAO1 assessed as reduction in bacterial growth by broth microdilution method. It is filed as functional, organism-based.
Assay [9] concerns Pseudomonas aeruginosa. The assay can be described thus: Antibiofilm activity against Pseudomonas aeruginosa PAO1 assessed as inhibition of biofilm formation incubated for 24 hrs by crystal violet staining based assay. It is filed as functional, organism-based. The note with it: PAO1, 24 h.
The test system of assay [10] is Pseudomonas aeruginosa. As to the kind of experiment: Antivirulence activity against Pseudomonas aeruginosa PAO1 assessed as inhibition of pyocyanin production at 16 ug/ml relative to control. It is filed as functional. The arrangement: scale not given: the % may be the effect or the level left. The note with it: dose 16 µg/ml.
In assay [11] the test system is Pseudomonas aeruginosa. As to the kind of experiment: Antivirulence activity against Pseudomonas aeruginosa PAO1 assessed as inhibition of rhamnolipid production at 16 ug/ml relative to control. The assay is classed as functional. On the set-up: scale not given: the % may be the effect or the level left. Conditions: dose 16 µg/ml.
Assay [12] deals with Pseudomonas aeruginosa. The assay can be described thus: Antibiofilm activity against Pseudomonas aeruginosa ATCC 27853 assessed as reduction in biofilm formation at 10 uM relative to control. The assay is classed as functional. The arrangement: scale not given: the % may be the effect or the level left.
Assay [13] has as its system Pseudomonas aeruginosa. The assay can be described thus: Antibiofilm activity against Pseudomonas aeruginosa PAO1 assessed as inhibition of biofilm formation at 1 to 100 uM incubated for 24 hrs by crystal violet staining based assay relative to control. It is filed as functional. The arrangement: scale not given: the % may be the effect or the level left. The note with it: dose 1-100 µM.

For assay [14], the system named is Pseudomonas aeruginosa. The assay can be described thus: Antimicrobial activity against Pseudomonas aeruginosa assessed as reduction in microbial growth. The assay is classed as functional, organism-based.
Assay [15] concerns Pseudomonas aeruginosa. As to the kind of experiment: Downregulation of rhlA mRNA level in Pseudomonas aeruginosa PAO1 at 10 uM by RT-qPCR analysis. It is filed as functional.
Assay [16] is described as follows: Inhibition of quorum sensing system in Pseudomonas aeruginosa PAO1 expressing lasB-gfp assessed as inhibition of lasB expression at 50 ug/ml incubated for 8 hrs by microplate reader based analysis relative to control. Conditions: dose 50.0 µg/ml.
The test system of assay [17] is Pseudomonas aeruginosa. The assay can be described thus: Antivirulence activity in Pseudomonas aeruginosa PAO1 assessed as reduction in pyocyanin production at 10 uM incubated for 24 hrs by absorbance based analysis relative to control. It is filed as functional. On the set-up: scale not given: the % may be the effect or the level left.
For assay [18], the system named is Pseudomonas aeruginosa. The assay can be described thus: Anti-virulence activity in Pseudomonas aeruginosa PAO1 assessed as reduction in pyoverdine production at 160 ug/ml by absorbance based analysis relative to control. The assay is classed as functional. On the set-up: scale not given: the % may be the effect or the level left. Conditions: dose 160 µg/ml.
Assay [19] has as its system Pseudomonas aeruginosa. The assay can be described thus: Antimicrobial activity against Pseudomonas aeruginosa PAO1 assessed as inhibition of bacterial growth measured for 18 hrs by CLSI-based broth microdilution method. It is filed as functional.
Assay [20] has as its system Pseudomonas aeruginosa. As to the kind of experiment: Antibiofilm activity against Pseudomonas aeruginosa ATCC 15442 assessed as inhibition of biofilm formation at 16 ug/ml relative to control. The assay is classed as functional. On the set-up: scale not given: the % may be the effect or the level left. The note with it: dose 16 µg/ml.
Assay [21] deals with Pseudomonas aeruginosa. The assay can be described thus: Antibacterial activity against Pseudomonas aeruginosa ATCC 15442 assessed as reduction in bacterial cell growth incubated for 18 hrs by two fold serial microdilution method. It is filed as functional.
In assay [22] the test system is Pseudomonas aeruginosa. The assay can be described thus: Downregulation of lasR mRNA expression in Pseudomonas aeruginosa PAO1 at 16 ug/ml relative to control. Conditions: dose 16 µg/ml. It is filed as functional.
Assay [23] concerns Pseudomonas aeruginosa. As to the kind of experiment: Downregulation of lasI mRNA expression in Pseudomonas aeruginosa PAO1 at 16 ug/ml relative to control. The assay is classed as functional. Conditions: dose 16 µg/ml.
In assay [24] the test system is Pseudomonas aeruginosa. As to the kind of experiment: Downregulation of rhlR mRNA expression in Pseudomonas aeruginosa PAO1 at 160 ug/ml incubated for 6 hrs by RT-qPCR analysis relative to control. The assay is classed as functional. The note with it: dose 160 µg/ml.
Assay [25] has as its system Pseudomonas aeruginosa. As to the kind of experiment: Antibiofilm activity against Pseudomonas aeruginosa PAO1 assessed as reduction in biofilm formation at 16 ug/ml incubated for 2 to 4 hrs by crystal violet staining based analysis relative to control. On the set-up: scale not given: the % may be the effect or the level left. It is filed as functional. Conditions: dose 16 µg/ml; time 2-4 hrs.

These results are taken from ChEMBL document CHEMBL6153025, “Multidrug-resistant bacteria quorum-sensing inhibitors: A particular focus on Pseudomonasaeruginosa” (Eur J Med Chem, 2025).

Converted amounts (≈) assume the structure as drawn.

As for `O=C(/C=C/c1ccc(O)c(O)c1)OCCc1ccc(Cl)cc1`, the Activity in assay [1] was 30.41%. `Cc1nc2ccccc2nc1CSc1nc2ccccc2c(=O)n1-c1ccc(F)cc1`: the MIC in [2] was 500 µM (≈ 214 µg/mL). Moreover, the Activity amounted to 46.37% in assay [3], 90% in assay [4] and 90% in assay [5]. `COc1cccc(C(=O)CSc2nc3ccccc3s2)c1`: the MIC in [6] was more than 512 µg/mL. For the same compound, inhibition in assay [7] was half-maximal at 182 µg/mL (≈ 578 µM) (IC50). On to `O=C(CNc1ccc(C(=O)/C=C/c2ccc(-c3ccccc3)cc2)cc1)N[C@@H]1CCOC1=O`, for which, in [8], the MIC was 5 µM (≈ 2.2 µg/mL). As for `CCCCCCCn1ccnc1`, the IC50 in [9] was 3.29 µM. Regarding `COc1ccc([C@H](CNC(=O)Nc2ccccc2F)c2c[nH]c3ccccc23)cc1OC`, the minimum inhibitory concentration (MIC) in [2] was 500 µM (≈ 217 µg/mL). Further, the Activity in [3] is 67.32%; in assay [10] it was 74.27%; in assay [11] it was 66.4%; in assay [4], 90%; in [5], 90%.

Take `CCCCCCCCSSc1nc2ccccc2c(=O)[nH]1`: in assay [12], the Activity is 46%. In the case of `COc1ccc(/C=C/C(=O)O)cc1OC`, the Activity in [1] is 15.79%.

For the compound `CC(C)c1ccc(/C=C/C(=O)c2ccc(NCC(=O)N[C@@H]3CCOC3=O)cc2)cc1`, the minimal inhibitory concentration (MIC) in [8] turned out to be 5 µM (≈ 2.03 µg/mL). On to `Oc1ccc2c(c1)OC[C@](O)(Cc1ccc(O)c(O)c1)[C@H]2O` [SAPPANOL], for which the Activity in [13] was determined as 54.26%.

Consider `Cc1ccc(CCOC(=O)/C=C/c2ccc(O)c(O)c2)cc1`, for which the Activity in assay [1] was 22.67%. With `COP(=O)(NCCCCOc1cc(O)c2c(=O)cc(-c3ccccc3)oc2c1)OC`, the IC50 in assay [14] was 100 µM. As to `O=C(COc1ccc(C(=O)/C=C/c2ccccc2Cl)cc1)N[C@H]1CCOC1=O`, in assay [8], the MIC stood at 5 µM (≈ 2 µg/mL).

As for `COc1cc(C)c(C(=O)Oc2cc(C)c(C(=O)O)c(O)c2)c(O)c1` [EVERNIC ACID], in [15], the Activity amounted to 50%. The inhibition in assay [16] turned out to be 54%.

On to `CCCCCCn1ccnc1`, for which the Activity in assay [17] was found to be 97%; in [18] it was 60%.

In the case of `O=c1c(-c2ccc(O)cc2)coc2cc(O)cc(O)c12` [GENISTEIN], in [19], the MIC was determined as 0.48 µg/mL (≈ 1.78 µM). For `CC(C)OP(=O)(NCCCCOc1cc(O)c2c(=O)cc(-c3ccccc3)oc2c1)OC(C)C`, the IC50 in [14] is 100 µM.

With `Cc1nc2cccc(Br)c2c(=O)n1/N=C/c1ccc(O)cc1`, the Activity in [10] is reported as 99.5%; in [20], 25%. The MIC in assay [21] was more than 50 µM. Take `CC1=C(/C=C/C(C)=C/C=C/C(C)=C/C=C/C=C(C)/C=C/C=C(C)/C=C/C2=C(C)C[C@@H](O)CC2(C)C)C(C)(C)C[C@H](O)C1` [ZEAXANTHIN]: the Activity in assay [15] is given as 43%. The inhibition in [16] turned out to be 67.8%. Take `O=c1c2c(Cl)cccc2ncn1Cc1ccc(NCc2ccco2)cc1`: in assay [20], the Activity was determined as 26.7%. For the same compound, in assay [21], the MIC is more than 50 µM.

On to `COc1ccc(-c2cc(=O)c3c(O)cc(O)cc3o2)cc1` [ACACETIN], for which the Activity was determined as 53% in assay [10] and 67% in assay [11]. For the same compound, the MIC in assay [19] stood at 0.48 µg/mL (≈ 1.69 µM). `C=CCc1ccc(O)c(OC)c1` [EUGENOL]: the Activity in assay [22] amounted to 51%; in [23], 52%; in assay [24], 65%; in assay [25] it was 50%.
